For assay [1], the target named is T1, recombinant human Lp-PLA2 (Homo sapiens, UniProt Q13093).
T1 sequence (Q13093 22-441): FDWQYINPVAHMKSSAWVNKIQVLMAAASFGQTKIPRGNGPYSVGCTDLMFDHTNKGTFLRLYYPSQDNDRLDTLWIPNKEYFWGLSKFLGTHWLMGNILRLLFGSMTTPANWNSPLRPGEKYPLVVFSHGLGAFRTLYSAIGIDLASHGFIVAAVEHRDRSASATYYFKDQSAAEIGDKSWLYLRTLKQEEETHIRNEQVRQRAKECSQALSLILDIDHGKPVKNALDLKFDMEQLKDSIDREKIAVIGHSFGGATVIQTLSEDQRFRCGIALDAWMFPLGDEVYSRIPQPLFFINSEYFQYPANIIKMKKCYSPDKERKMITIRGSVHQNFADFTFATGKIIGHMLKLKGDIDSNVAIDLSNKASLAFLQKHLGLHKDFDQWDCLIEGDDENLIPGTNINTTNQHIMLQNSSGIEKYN
Put plainly: Recombinant human Lp-PLA2 assay (rhLp-PLA2, PED6 assay). It is filed as biochemical. The source says: (1) Recombinant Human Lp-PLA2 Assay (rhLp-PLA2) (Also Referred to as “PED6” Assay)
N-((6-(2,4-dinitrophenyl)amino)-hexanoyl)-2-(4,4-difluoro-5,7-dimethyl-4-bora-3a,4a-diaza-s-indacene-3-pentanoyl)-1-hexadecanoyl-sn-glycero-3-phosphoethanolamine, triethylammonium salt (PED6) is a commercially available fluorescently-labeled phospholipid, which is commercially available from Invitrogene and Molecular Probes. There is a quenching para-nitro phenyl (PNP) group in the sn3 position and a Bodipy fluorescein (FL) group in the sn2 position. Upon cleavage with Lp-PLA2, the Bodipy FL group is liberated and then may result in an increase in fluorescence. Inhibitors of Lp-PLA2 therefore prevent this cleavage and no fluorescent increase is observed.
The PED6 assay was run as an unquenched 10 μL assay. The source plate containing the compounds to be tested was prepared by making 1:3 (by volume) serial dilution of the compounds within DMSO on 384-well microplate. Then, 0.01 μL of the compounds on compound source plate were transferred into 384 well Greiner 784076 (black) plates using ECHO liquid dispenser. 5 μL of recombinant human Lp-PLA2 enzyme (4 nM (or 110 pM) rhLp-PLA2 in assay buffer of 50 mM HEPES, pH 7.4, 150 mM NaCl, 1 mM CHAPS) was added to each well of the plate. Plates were centrifuged for 10 sec at 500 rpm. After 30 minutes preincubation, 5 μL of substrate (4 μM (or 5 μM) PED6 [from 5 mM DMSO stock] in assay buffer of 50 mM HEPES, pH 7.4, 150 mM NaCl, 1 mM CHAPS) was added to 384 well Greiner 784076 (black) plates. Plates were centrifuged for 10 sec at 500 rpm. The plate was covered to protect it from light and incubated for 20 min at room temperature. The plates were read for fluorescence intensity at ex: 480/em: 540 using ViewLux microplate imager for Envision spectrofluroimeters. pIC50 data, curve and QC analysis was conducted by using XL fit module in Excel.

In a further assay the target is T2, Lp-PLA2 in human plasma (Homo sapiens, UniProt Q13093).
T2 construct: from tissue; host or cells: pooled human plasma
T2 sequence (Q13093 22-441): T1 sequence (Q13093 22-441)
Description: Lp-PLA2 human plasma assay (Thio-PAF assay). It counts as biochemical. The conditions noted are these: pooled human plasma; read-out: pIC50 values in the thio-PAF assay (converted). Summed up: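 Pooled human plasma preincubated 30 min with compound, then 2-thio-PAF substrate added with CPM and NEM in 50 mM HEPES pH 7.4, 150 mM NaCl, 1 mM CHAPS. Quenched with TFA after 2 min, incubated 40 min at room temperature, and read by fluorescence at ex 380/em 485 nm. Values given as pIC50.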

Setting [2] is: read-out: pIC50 values in the recombinant human Lp-PLA2 assay (converted).
Where [3] appears, read: read-out: rhLp-PLA2 (PED6 assay) (pIC50) (converted).

Read-outs that look alike come from different tables or passages of the source.

21 compounds from patent US20150344485A1, “BICYCLIC PYRIMIDONE COMPOUNDS AS INHIBITORS OF LP-PLA2” (GLAXOSMITHKLINE INTELLECTUAL PROPERTY DEVELOPMENT LIMITED, priority 2013, published 2015) can be followed below.

As for `C[C@@H]1CCn2c(cc(OCc3ccc(Oc4ccc(F)c(F)c4)c(C#N)c3)nc2=O)N1C` [E114, (R)-2-(3,4-difluorophenoxy)-5-(((1,2-dimethyl-6-oxo-2,3,4,6-tetrahydro-1H-pyrimido[1,6-a]pyrimidin-8-yl)oxy)methyl)benzonitrile], the IC50 in assay [1] (setting [2]) is at most 1 nM; at Lp-PLA2 in human plasma it was at most 10 nM.

For `CC1CCn2c(cc(OCc3ccc(Oc4ccc(Cl)c(F)c4)c(C#N)c3)nc2=O)N1` (stereo not drawn) [E6, 2-(4-chloro-3-fluorophenoxy)-5-(((2-methyl-6-oxo-2,3,4,6-tetrahydro-1H-pyrimido[1,6-a]pyrimidin-8-yl)oxy)methyl)benzonitrile], the IC50 was at most 1 nM in assay [1] (setting [2]) and at most 100 nM at Lp-PLA2 in human plasma.

With `CN1c2cc(OCc3cc(F)c(Oc4ccc(C(F)(F)F)nc4)c(F)c3)nc(=O)n2CCC1(C)C` [E88, 8-((3,5-difluoro-4-((6-(trifluoromethyl)pyridin-3-yl)oxy)benzyl)oxy)-1,2,2-trimethyl-3,4-dihydro-1H-pyrimido[1,6-a]pyrimidin-6(2H)-one], the results for the IC50 (in assay [1] (setting [2]); at Lp-PLA2 in human plasma) were at most 1 nM and at most 100 nM, respectively.

For the compound `CN1c2cc(OCc3cc(F)c(Oc4ccnc(C(F)(F)F)c4)c(F)c3)nc(=O)n2CCC1(C)C` [E153], the results for the IC50 (in assay [1] (setting [2]); on Lp-PLA2 in human plasma) were at most 1 nM and at most 10 nM, respectively.

As for `C[C@H]1CCn2c(cc(OCc3cc(F)c(Oc4ccc(F)c(F)c4)c(F)c3)nc2=O)N1C` [E90, (S)-8-((4-(3,4-difluorophenoxy)-3,5-difluorobenzyl)oxy)-1,2-dimethyl-3,4-dihydro-1H-pyrimido[1,6-a]pyrimidin-6(2H)-one], the IC50 was at most 1 nM in assay [1] (setting [2]) and at most 10 nM at Lp-PLA2 in human plasma.

For `C[C@@H]1CCn2c(cc(OCc3cc(F)c(Oc4ccnc(C(F)(F)F)c4)c(F)c3)nc2=O)N1C` [E144, (R)-8-((3,5-difluoro-4-((2-(trifluoromethyl)pyridin-4-yl)oxy)benzyl)oxy)-1,2-dimethyl-3,4-dihydro-1H-pyrimido[1,6-a]pyrimidin-6(2H)-one], the IC50 is at most 1 nM in assay [1] (setting [2]), 0.0251 nM in assay [1] (setting [3]) and at most 10 nM at Lp-PLA2 in human plasma.

As for `C[C@H]1CCn2c(cc(OCc3ccc(Oc4ccc(C(F)(F)F)nc4)c(C#N)c3)nc2=O)N1C` [E113, (S)-5-(((1,2-dimethyl-6-oxo-2,3,4,6-tetrahydro-1H-pyrimido[1,6-a]pyrimidin-8-yl)oxy)methyl)-2-((6-(trifluoromethyl)pyridin-3-yl)oxy)benzonitrile], the IC50 in assay [1] (setting [2]) is at most 1 nM; at Lp-PLA2 in human plasma, at most 100 nM.

`C[C@@H]1CCn2c(cc(OCc3ccc(Oc4ccc(Cl)c(F)c4)c(C#N)c3)nc2=O)N1C` [E76, (R)-2-(4-chloro-3-fluorophenoxy)-5-(((1,2-dimethyl-6-oxo-2,3,4,6-tetrahydro-1H-pyrimido[1,6-a]pyrimidin-8-yl)oxy)methyl)benzonitrile]: the figures for the IC50 (in assay [1] (setting [2]); on Lp-PLA2 in human plasma) were at most 1 nM and at most 100 nM, respectively.

Turning to `C[C@H]1CCn2c(cc(OCc3ccc(Oc4ccc(F)c(F)c4)c(C#N)c3)nc2=O)N1C` [E99, (S)-2-(3,4-difluorophenoxy)-5-(((1,2-dimethyl-6-oxo-2,3,4,6-tetrahydro-1H-pyrimido[1,6-a]pyrimidin-8-yl)oxy)methyl)benzonitrile], the IC50 in assay [1] (setting [2]) is at most 1 nM; at Lp-PLA2 in human plasma, at most 10 nM.

For the compound `C[C@H]1CCn2c(cc(OCc3ccc(Oc4ccnc(C(F)(F)F)c4)c(F)c3)nc2=O)N1C` [E151, (S)-8-((3-fluoro-4-((2-(trifluoromethyl)pyridin-4-yl)oxy)benzyl)oxy)-1,2-dimethyl-3,4-dihydro-1H-pyrimido[1,6-a]pyrimidin-6(2H)-one], the IC50 is at most 1 nM in assay [1] (setting [2]) and at most 10 nM at Lp-PLA2 in human plasma.

Consider `C[C@H]1CCn2c(cc(OCc3cc(F)c(F)c(F)c3)nc2=O)N1C` [E35, (S)-1,2-dimethyl-8-((3,4,5-trifluorobenzyl)oxy)-3,4-dihydro-1H-pyrimido[1,6-a]pyrimidin-6(2H)-one], for which the IC50 in assay [1] (setting [2]) is at most 1 nM; on Lp-PLA2 in human plasma it was at most 100 nM.

For `C[C@H]1CCn2c(cc(OCc3cc(F)c(Oc4ccnc(C(F)(F)F)c4)c(F)c3)nc2=O)N1C` [E146, (S)-8-((3,5-difluoro-4-((2-(trifluoromethyl)pyridin-4-yl)oxy)benzyl)oxy)-1,2-dimethyl-3,4-dihydro-1H-pyrimido[1,6-a]pyrimidin-6(2H)-one], the IC50 in assay [1] (setting [2]) is at most 1 nM; in assay [1] (setting [3]), 0.0158 nM; at Lp-PLA2 in human plasma, at most 10 nM.

Turning to `C[C@@H]1CCn2c(cc(OCc3cc(F)c(Oc4ccc(Cl)cc4)c(F)c3)nc2=O)N1C` [E124, (R)-8-((4-(4-chlorophenoxy)-3,5-difluorobenzyl)oxy)-1,2-dim ethyl-3,4-dihydro-1H-pyrimido[1,6-a]pyrimidin-6(2H)-one], the figures for the IC50 (in assay [1] (setting [2]); on Lp-PLA2 in human plasma) were at most 1 nM and at most 100 nM, respectively.

Regarding `CN1c2cc(OCc3ccc(Oc4ccc(F)c(F)c4)c(C#N)c3)nc(=O)n2CCC1(C)C` [E111, 2-(3,4-difluorophenoxy)-5-(((1,2,2-trimethyl-6-oxo-2,3,4,6-tetrahydro-1H-pyrimido[1,6-a]pyrimidin-8-yl)oxy)methyl)benzonitrile], the IC50 was at most 1 nM in assay [1] (setting [2]) and at most 10 nM on Lp-PLA2 in human plasma.

As to `C[C@H]1CCn2c(cc(OCc3cc(F)c(Oc4cccc(F)c4)c(F)c3)nc2=O)N1C` [E96], the IC50 in assay [1] (setting [2]) was at most 1 nM; on Lp-PLA2 in human plasma, at most 100 nM.

On to `CC1CCn2c(cc(OCc3ccc(F)c(F)c3)nc2=O)N1` (stereo not drawn) [E4, 8-((3,4-difluorobenzyl)oxy)-2-methyl-3,4-dihydro-1H-pyrimido[1,6-a]pyrimidin-6(2H)-one], for which the IC50 was 3.16 nM in assay [1] (setting [3]) and at most 100 nM on Lp-PLA2 in human plasma.

For `C[C@@H]1CCn2c(cc(OCc3ccc(Oc4ccc(C(F)(F)F)nc4)c(F)c3)nc2=O)N1C` [E145, (R)-8-((3-fluoro-4-((6-(trifluoromethyl)pyridin-3-yl)oxy)benzyl)oxy)-1,2-dimethyl-3,4-dihydro-1H-pyrimido[1,6-a]pyrimidin-6(2H)-one], the figures for the IC50 (in assay [1] (setting [2]); at Lp-PLA2 in human plasma) were at most 1 nM and at most 10 nM, respectively.

Take `CC1CCn2c(cc(OCc3ccc(Oc4ccc(C(F)(F)F)nc4)c(F)c3)nc2=O)N1` (stereo not drawn) [E1, 8-((3-fluoro-4-((6-(trifluoromethyl)pyridin-3-yl)oxy)benzyl)oxy)-2-methyl-3,4-dihydro-1H-pyrimido[1,6-a]pyrimidin-6(2H)-one]: the IC50 was at most 1 nM in assay [1] (setting [2]) and at most 100 nM at Lp-PLA2 in human plasma.

`CC1CCn2c(cc(OCc3ccc(Oc4ccc(C(F)(F)F)cc4)c(C#N)c3)nc2=O)N1` (stereo not drawn) [E2, 5-(((2-methyl-6-oxo-2,3,4,6-tetrahydro-1H-pyrimido[1,6-a]pyrimidin-8-yl)oxy)methyl)-2-(4-(trifluoromethyl)phenoxy)benzonitrile]: the results for the IC50 (in assay [1] (setting [2]); in assay [1] (setting [3]); on Lp-PLA2 in human plasma) were at most 1 nM, 0.126 nM and at most 100 nM, respectively.

Turning to `CC(C)N1c2cc(OCc3cc(F)c(F)c(F)c3)nc(=O)n2CC[C@@H]1C` [E140, (S)-1-isopropyl-2-methyl-8-((3,4,5-trifluorobenzyl)oxy)-3,4-dihydro-1H-pyrimido[1,6-a]pyrimidin-6(2H)-one], the values for the IC50 (in assay [1] (setting [2]); on Lp-PLA2 in human plasma) were at most 1 nM and at most 100 nM, respectively.

For `[2H]C([2H])(Oc1cc2n(c(=O)n1)CCC(C)(C)N2C)c1cccc(F)c1F` [E73, 8-((2,3-difluorophenyl)dideuteromethoxy)-1,2,2-trimethyl-3,4-dihydro-1H-pyrimido[1,6-a]pyrimidin-6(2H)-one], the IC50 was at most 1 nM in assay [1] (setting [2]) and at most 100 nM on Lp-PLA2 in human plasma.
